Data on five molecules can be found in patent US4332794A, “6"-Deoxydibekacin, 4",6"-dideoxydibekacin and 1-N-aminoacyl derivatives thereof, and the production of these new compounds” (Zaidan Hojin Biseibutsu Kagaku Kenkyu Kai, priority 1979, dated 1982).

Values after ≈ are worked out from the molar mass of the structure shown. Where two headings read alike, the source gives them in different places.

Assay [1] relates to Pseudomonas aeruginosa No. 12. Briefly: MIC, serial dilution on nutrient agar. The class given is cell-based.
A further assay concerns Escherichia coli W677. Briefly: MIC, serial dilution on nutrient agar. The class given is cell-based.
A further assay deals with Bacillus anthracis. The assay is described as follows: microbe, parasite or virus in culture. The format is cell-based. Conditions: 18 h.
The subject of assay [2] is Bacillus subtilis NRRL B-558. Briefly: MIC, serial dilution on nutrient agar. As to conditions: NRRLB558, 37° C., 18 hours. The format is cell-based.
Assay [3] relates to Escherichia coli K-12 LA 290 R55. The assay is described as follows: microbe, parasite or virus in culture. The class given is cell-based. Conditions: K12LA290R55, 18 h.
Assay [4] relates to Bacillus subtilis PCI 219. Briefly: MIC, serial dilution on nutrient agar. Conditions: PCI219, 37° C., 18 hours. The class given is cell-based.
Assay [5] relates to Pseudomonas aeruginosa A3. Briefly: MIC, serial dilution on nutrient agar. The class given is cell-based.
The subject of assay [6] is Pseudomonas aeruginosa K-Ps102. Briefly: MIC, serial dilution on nutrient agar. The class given is cell-based.
Assay [7] has as its system Shigella dysenteriae JS11910. Briefly: MIC, serial dilution on nutrient agar. As to conditions: JS11910, 18 h. The format is cell-based.
Assay [8] deals with Escherichia coli K-12 ML 1410. Briefly: MIC, serial dilution on nutrient agar. The format is cell-based.
The next assay relates to Sarcina lutea PCI 1001. The assay is described as follows: MIC, serial dilution on nutrient agar. The format is cell-based. As to conditions: Micrococcus luteus.
Assay [9] deals with kanamycin-sensitive bacteria and various kanamycin-resistant bacteria. As to conditions: prior art; cited from earlier work.
The test system of assay [10] is Escherichia coli K-12 R 388. The assay is described as follows: MIC, serial dilution on nutrient agar. The class given is cell-based. Conditions: K12R388, 18 h.
The subject of assay [11] is Pseudomonas aeruginosa H11. The assay is described as follows: MIC, serial dilution on nutrient agar. The class given is cell-based.
In assay [12] the test system is Staphylococcus aureus Smith. Briefly: MIC, serial dilution on nutrient agar. The format is cell-based. Conditions: 37° C., 18 hours.
In assay [13] the test system is Pseudomonas aeruginosa PST1. The assay is described as follows: MIC, serial dilution on nutrient agar. The class given is cell-based.
Assay [14] relates to Corynebacterium bovis 1810. The assay is described as follows: MIC, serial dilution on nutrient agar. The class given is cell-based.
The subject of assay [15] is Staphylococcus epidermidis 109. The assay is described as follows: MIC, serial dilution on nutrient agar. The class given is cell-based.
Assay [16] concerns Pseudomonas aeruginosa B-13. Briefly: MIC, serial dilution on nutrient agar. The format is cell-based.
Assay [17] deals with Mycrococcus flavus FDA 16. The assay is described as follows: MIC, serial dilution on nutrient agar. The format is cell-based.
In assay [18] the test system is kanamycin-sensitive and resistant bacteria. Briefly: antibacterial activity compared to dibekacin. The class given is cell-based. As for the experimental part: The minimum inhibitory concentrations (mcg/ml) of 6"-deoxydibekacin (abbreviated as 6"-DDKB), 4",6"-dideoxydibekacin (abbreviated as 4",6"-DDKB), 1-N-(L-4-amino-2-hydroxybutyryl)-6"-deoxydibekacin (abbreviated as AHB-6"-DDKB) and 1-N-(L-4-amino-2-hydroxybutyryl)-4",6"-dideoxydibekacin (abbreviated as AHB-4",6"-DDKB) of this invention against various microorganisms were determined according to serial dilution method on a nutrient agar medium at 37° C., the estimation being made after 18 hours incubation. For comparison purpose, the minimum inhibitory concentrations of dibekacin (abbreviated as DKB) were also determined in the same manner as stated above.

[19] abbreviates: K12ML1410, nutrient agar, 37° C., 18 hours, read-out: MIC.
Setting [20] is: H11, nutrient agar, 37° C., 18 hours, read-out: MIC.
[21] abbreviates: Corynebacterium bovis, 1810, 18 h.
The mark [22] stands for this setting: NO.12, nutrient agar, 37° C., 18 hours, read-out: MIC.
Where [23] appears, read: KPS102, nutrient agar, 37° C., 18 hours, read-out: MIC.
Where [24] appears, read: Staphylococcus epidermidis, 109, 18 h.
The mark [25] stands for this setting: PCI1001, nutrient agar, 37° C., 18 hours, read-out: MIC.
[26] abbreviates: Corynebacterium bovis, 1810, nutrient agar, 37° C., 18 hours, read-out: MIC.
Where [27] appears, read: B13, nutrient agar, 37° C., 18 hours, read-out: MIC.

Consider `NC[C@@H]1CC[C@@H](N)[C@@H](O[C@H]2[C@H](O)[C@@H](O[C@H]3O[C@H](CO)[C@@H](O)[C@H](N)[C@H]3O)[C@H](N)C[C@@H]2N)O1` [DKB, 3',4'-dideoxykanamycin B, reference compound], for which the MIC in assay [1] (NO.12, 18 h) is 6.25 µg/mL (≈ 13.8 µM); in the assay on Escherichia coli W677 (W677, nutrient agar, 37° C., 18 hours, read-out: MIC), 1.56 µg/mL (≈ 3.45 µM); in the assay with Bacillus anthracis, below 0.2 µg/mL; in [2], below 0.2 µg/mL; in assay [3], 100 µg/mL (≈ 221 µM); in assay [4], below 0.2 µg/mL. The MIC in assay [5] (A3, 18 h) came out at 3.13 µg/mL (≈ 6.93 µM); in assay [6] (KPS102, 18 h) it was 6.25 µg/mL (≈ 13.8 µM); in [7], 3.13 µg/mL (≈ 6.93 µM); in assay [8] (setting [19]), 1.56 µg/mL (≈ 3.45 µM); against Sarcina lutea PCI 1001 (PCI1001, 18 h), 100 µg/mL (≈ 221 µM); in assay [10], 1.56 µg/mL (≈ 3.45 µM). The MIC was 12.5 µg/mL (≈ 27.7 µM) in assay [11] (setting [20]); below 0.2 µg/mL in assay [12]; above 100 µg/mL in [13] (PST1, 18 h); 50 µg/mL (≈ 111 µM) in assay [14] (setting [21]); 1.56 µg/mL (≈ 3.45 µM) in assay [15] (Staphylococcus epidermidis, 109, nutrient agar, 37° C., 18 hours, read-out: MIC); 6.25 µg/mL (≈ 13.8 µM) in [16] (B13, 18 h). Besides, the MIC in [17] (18 h) is 100 µg/mL (≈ 221 µM). For the same molecule, in [9], the antibacterial activity result was “active against the kanamycin-sensitive bacteria and also against various kanamycin-resistant bacteria”.

Take `C[C@@H]1C[C@H](N)[C@@H](O)[C@@H](O[C@@H]2[C@@H](O)[C@H](O[C@H]3O[C@H](CN)CC[C@H]3N)[C@@H](N)C[C@H]2N)O1` [4",6"-DDKB, 4",6"-dideoxydibekacin]: the MIC in [1] (setting [22]) was 12.5 µg/mL (≈ 29.8 µM); in the assay with Escherichia coli W677 (W677, 18 h), 0.78 µg/mL (≈ 1.86 µM); in the assay on Bacillus anthracis, below 0.2 µg/mL; in assay [2], below 0.2 µg/mL; in [3] it was 100 µg/mL (≈ 238 µM); in assay [4] it was below 0.2 µg/mL. Moreover, the MIC in [5] (A3, 18 h) came out at 3.13 µg/mL (≈ 7.46 µM); in assay [6] (setting [23]), 25 µg/mL (≈ 59.6 µM); in [7], 3.13 µg/mL (≈ 7.46 µM); in assay [8] (K12ML1410, 18 h) it was 1.56 µg/mL (≈ 3.72 µM); against Sarcina lutea PCI 1001 (PCI1001, 18 h), 50 µg/mL (≈ 119 µM); in assay [10], 1.56 µg/mL (≈ 3.72 µM). Moreover, the MIC in assay [11] (H11, 18 h) was 100 µg/mL (≈ 238 µM); in [12], below 0.2 µg/mL; in assay [13] (PST1, 18 h), above 100 µg/mL; in assay [14] (setting [21]), 50 µg/mL (≈ 119 µM); in assay [15] (setting [24]) it was 3.13 µg/mL (≈ 7.46 µM); in assay [16] (B13, 18 h) it was above 100 µg/mL. The MIC in assay [17] (18 h) came out at 50 µg/mL (≈ 119 µM). Moreover, in assay [18], the “antibacterial activity compared to dibekacin (DKB)” value is “same or more active”.

Take `C[C@H]1O[C@H](O[C@@H]2[C@@H](O)[C@H](O[C@H]3O[C@H](CN)CC[C@H]3N)[C@@H](N)C[C@H]2NC(=O)[C@@H](O)CCN)[C@H](O)[C@@H](N)[C@@H]1O` [AHB-6"-DDKB, 1-N-(L-4-amino-2-hydroxybutyryl)-6"-deoxydibekacin]: the MIC in assay [1] (setting [22]) was 25 µg/mL (≈ 46.6 µM); in the assay with Escherichia coli W677 (W677, 18 h), 1.56 µg/mL (≈ 2.91 µM); against Bacillus anthracis it was 0.2 µg/mL (≈ 0.373 µM); in assay [2] it was below 0.2 µg/mL; in assay [3], 3.13 µg/mL (≈ 5.83 µM); in assay [4] it was below 0.2 µg/mL. Moreover, the MIC in assay [5] (A3, nutrient agar, 37° C., 18 hours, read-out: MIC) worked out at 3.13 µg/mL (≈ 5.83 µM); in assay [6] (setting [23]), 12.5 µg/mL (≈ 23.3 µM); in assay [7], 6.25 µg/mL (≈ 11.6 µM); in [8] (setting [19]), 3.13 µg/mL (≈ 5.83 µM); in the assay with Sarcina lutea PCI 1001 (setting [25]) it was 3.13 µg/mL (≈ 5.83 µM); in [10], 0.78 µg/mL (≈ 1.45 µM). In addition, the MIC in assay [11] (H11, 18 h) was 50 µg/mL (≈ 93.2 µM); in assay [12] it was below 0.2 µg/mL; in assay [13] (PST1, 18 h), 50 µg/mL (≈ 93.2 µM); in assay [14] (setting [26]), 3.13 µg/mL (≈ 5.83 µM); in assay [15] (setting [24]), 1.56 µg/mL (≈ 2.91 µM); in assay [16] (setting [27]), 25 µg/mL (≈ 46.6 µM). The MIC in assay [17] (18 h) was 1.56 µg/mL (≈ 2.91 µM).

Consider `C[C@H]1O[C@H](O[C@@H]2[C@@H](O)[C@H](O[C@H]3O[C@H](CN)CC[C@H]3N)[C@@H](N)C[C@H]2N)[C@H](O)[C@@H](N)[C@@H]1O` [6"-DDKB, 6"-deoxydibekacin], for which the MIC is 6.25 µg/mL (≈ 14.4 µM) in [1] (setting [22]); 1.56 µg/mL (≈ 3.58 µM) in the assay on Escherichia coli W677 (W677, 18 h); 0.39 µg/mL (≈ 0.895 µM) in the assay with Bacillus anthracis; below 0.2 µg/mL in assay [2]; above 100 µg/mL in assay [3]; below 0.2 µg/mL in assay [4]. The MIC was 1.56 µg/mL (≈ 3.58 µM) in assay [5] (A3, 18 h); 6.25 µg/mL (≈ 14.4 µM) in assay [6] (setting [23]); 3.13 µg/mL (≈ 7.19 µM) in assay [7]; 3.13 µg/mL (≈ 7.19 µM) in [8] (K12ML1410, 18 h); 25 µg/mL (≈ 57.4 µM) with Sarcina lutea PCI 1001 (setting [25]); 1.56 µg/mL (≈ 3.58 µM) in [10]. Further, the MIC in assay [11] (setting [20]) is 12.5 µg/mL (≈ 28.7 µM); in assay [12] it was below 0.2 µg/mL; in assay [13] (PST1, 18 h) it was above 100 µg/mL; in assay [14] (setting [26]), 25 µg/mL (≈ 57.4 µM); in [15] (setting [24]), 1.56 µg/mL (≈ 3.58 µM); in assay [16] (B13, 18 h) it was 50 µg/mL (≈ 115 µM). Moreover, the MIC in assay [17] (nutrient agar, 37° C., 18 hours, read-out: MIC) turned out to be 25 µg/mL (≈ 57.4 µM). For the same molecule, the “antibacterial activity compared to dibekacin (DKB)” value in assay [18] was “same or more active”.

With `C[C@@H]1C[C@H](N)[C@@H](O)[C@@H](O[C@@H]2[C@@H](O)[C@H](O[C@H]3O[C@H](CN)CC[C@H]3N)[C@@H](N)C[C@H]2NC(=O)[C@@H](O)CCN)O1` [AHB-4",6"-DDKB, 1-N-(L-4-amino-2-hydroxybutyryl)-4",6"-dideoxydibekacin], the MIC is 12.5 µg/mL (≈ 24 µM) in assay [1] (setting [22]); 1.56 µg/mL (≈ 3 µM) against Escherichia coli W677 (W677, 18 h); below 0.2 µg/mL in the assay with Bacillus anthracis; below 0.2 µg/mL in assay [2]; 1.56 µg/mL (≈ 3 µM) in assay [3]; below 0.2 µg/mL in assay [4]. The MIC in assay [5] (A3, 18 h) is 1.56 µg/mL (≈ 3 µM); in assay [6] (setting [23]), 12.5 µg/mL (≈ 24 µM); in assay [7], 3.13 µg/mL (≈ 6.01 µM); in assay [8] (K12ML1410, 18 h), 1.56 µg/mL (≈ 3 µM); against Sarcina lutea PCI 1001 (PCI1001, 18 h), 3.13 µg/mL (≈ 6.01 µM); in [10], 0.78 µg/mL (≈ 1.5 µM). Besides, the MIC in assay [11] (H11, 18 h) was 50 µg/mL (≈ 96 µM); in assay [12] it was below 0.2 µg/mL; in [13] (PST1, nutrient agar, 37° C., 18 hours, read-out: MIC), 25 µg/mL (≈ 48 µM); in assay [14] (setting [21]), 6.25 µg/mL (≈ 12 µM); in assay [15] (setting [24]) it was 1.56 µg/mL (≈ 3 µM); in [16] (setting [27]), 12.5 µg/mL (≈ 24 µM). Moreover, the MIC in [17] (18 h) is 1.56 µg/mL (≈ 3 µM).
